According to patent US20040142821A1, “Pesticide composition comprising malononitrile compounds” (priority 2001, published 2004):

Tests used:
[1] = tested on: Diabrotica undecimpunctata; test: Pesticidal test against Diabrotica undecimpunctata, treated filter paper (Test Example 4); assay type: in vivo, Diabrotica undecimpunctata (southern-corn rootworm); details: 50 ppm test liquid (Formulation Example 1), 1 ml on filter paper; 30 to 50 eggs and one germinated corn seed; 25° C.
Procedure: One germinated seed of corn and 30 to 50 eggs of Diabrotica undecimpunctata (southern-corn rootworm) was placed on the filter paper in the polyethylene cup, which was then kept covered and left in a room at 25° C. On the 6th day after, the number of surviving larvae of Diabrotica undecimpunctata was examined.

Musca domestics = test: Pesticidal test against Musca domestics, treated filter paper with sucrose bait (Test Example 5); assay type: in vivo; details: 500 ppm test liquid (Formulation Example 5), 0.7 ml on filter paper, ten female adults, after 24 hours
Procedure: Ten female adults of Musca domestics (house fly) were set free in the polyethylene cup, which was then kept covered. After 24 hours, their survival was examined to determine the mortality.

German cockroach = test: Pesticidal test against German cockroach, treated filter paper with sucrose bait (Test Example 6); assay type: in vivo; details: Blattella germanica, 144 h; 500 ppm test liquid (Formulation Example 5), 0.7 ml on filter paper; two male adults; after 6 days
Excerpt: Two male adults of German cockroach (Blattalla germanica) were set free in the polyethylene cup, which was then kept covered. After 6 days, their survival was examined to determine the mortality.

Cullex pipiens pallens = test: whole plant or invertebrate; details: 24 h
Procedure: In 100 ml of ion-exchanged water, the test liquid had been prepared as described above, was added dropwise in an amount of 0.7 ml (the concentration of active ingredient was 3.5 ppm). Twenty final-instar larvae of Cullex pipiens pallens (common mosquito) were set free in the solution. After 1 days, their survival was examined to determine the mortality.

SMILES | number of surviving pests on the 6th day after [1] | mortality at 500 ppm (Musca domestics) [%] | mortality at 500 ppm (German cockroach) [%] | mortality at 3.5 µg/mL (Cullex pipiens pallens) [%]
C=CCCC(C#N)(C#N)C(c1ccc(OC(F)(F)F)cc1)C(C)C (stereo not shown) [Compound 12] | 0 | – | – | –
C=CCCC(C#N)(C#N)Cc1ccc(OC(F)(F)F)cc1 [Compound 15, 2-(3-butenyl)-2-(4-(trifluoromethoxy)benzyl)malononitrile] | – | 100 | 100 | 100
C=CCC(C#N)(C#N)Cc1cccc(Cl)c1 [Compound 17, 2-allyl-2-(3-chlorobenzyl)malononitrile] | – | 100 | 100 | 100
CC(C)CC(C#N)(C#N)Cc1ccc(Cl)cc1 [Compound 19, 2-(4-chlorobenzyl)-2-isobutylmalononitrile] | 0 | – | – | 100
C=CCCCC(C#N)(C#N)Cc1ccc(Cl)cc1 [Compound 21, 2-(4-chlorobenzyl)-2-(4-pentenyl)malononitrile] | 0 | – | – | 100
C=CC(C)C(C#N)(C#N)Cc1ccc(Cl)cc1 (stereo not shown) [Compound 22, 2-(4-chlorobenzyl)-2-(1-methyl-2-propenyl)malononitrile] | 0 | 100 | – | 100
C=CCC(C#N)(C#N)Cc1ccc(Cl)cc1Cl [Compound 24, 2-allyl-2-(2,4-dichlorobenzyl)malononitrile] | 0 | 100 | – | 100
C=CCCC(C#N)(C#N)C(c1ccc(Cl)cc1)C(C)C (stereo not shown) [Compound 26, 2-(3-butenyl)-2-(1-(4-chlorophenyl)-2-methylpropyl)malononitrile] | 0 | – | – | 100
C=CCC(C#N)(C#N)C(C)c1ccc(OC(F)(F)F)cc1 (stereo not shown) [Compound 30, 2-allyl-2-(1-(4-(trifluoromethoxy)phenyl)ethyl)malononitrile] | – | 100 | 100 | 100
C=CCC(C#N)(C#N)C(CCl)c1ccc(OC(F)(F)F)cc1 (stereo not shown) [Compound 31, 2-allyl-2-(1-(4-(trifluoromethoxy)phenyl)-2-chloroethyl)malononitrile] | – | 100 | 100 | 100
C=CCCC(C#N)(C#N)C(C=C)c1ccc(OC(F)(F)F)cc1 (stereo not shown) [Compound 32, 2-(3-butenyl)-2-(1-(4-(trifluoromethoxy)phenyl)-2-propenyl)malononitrile] | – | 100 | 100 | 100
C=CCC(C#N)(C#N)C(C=C)c1ccc(OC(F)(F)F)cc1 (stereo not shown) [Compound 33, 2-allyl-2-(1-(4-(trifluoromethoxy)phenyl)-2-propenyl)malononitrile] | – | 100 | 100 | 100
C=CCCC(C#N)(C#N)Cc1ccc(OC(F)F)cc1 [Compound 36, 2-(3-butenyl)-2-(4-(difluoromethoxy)benzyl)malononitrile] | – | 100 | 100 | 100
C=CCC(C#N)(C#N)C(OC)c1ccc(OC(F)(F)F)cc1 (stereo not drawn) [Compound 39, 2-allyl-2-(4-(trifluoromethoxy)-α-methoxybenzyl)malononitrile] | – | 100 | 100 | 100
C=CCC(C#N)(C#N)Cc1ccc(SC(F)(F)F)cc1 [Compound 41, 2-allyl-2-(4-(trifluoromethylthio)benzyl)malononitrile] | – | 100 | 100 | 100
C=CCCC(C#N)(C#N)Cc1ccc(SC(F)(F)F)cc1 [Compound 42, 2-(3-butenyl)-2-(4-(trifluoromethylthio)benzyl)malononitrile] | – | 100 | 100 | 100
C=CCC(C#N)(C#N)C(OC)c1ccc(SC(F)(F)F)cc1 (stereo not drawn) [Compound 43, 2-allyl-2-(4-(trifluoromethylthio)-α-methoxybenzyl)malononitrile] | – | 100 | 100 | 100
CC=CCC(C#N)(C#N)Cc1ccc(SC(F)(F)F)cc1 [Compound 46, 2-(2-butenyl)-2-(4-(trifluoromethylthio)benzyl)malononitrile] | – | 100 | 100 | 100
